Measurements: patent US20060199867A1, “Ambroxol for the treatment of chronic pain” (Boehringer Ingelheim Pharma GmbH, priority 2002, published 2006)
Where a name gives a salt, the structure may show the parent alone.

Assays:
[1] = tested on: formalin-induced nociceptive behaviors (flinches, licking); test: Formalin Paw Test; assay type: in vivo; conditions: Rattus norvegicus, po, male rats, dose at which control values are inhibited by 50%
Protocol: Formalin Paw Test (Ref: Carlton S M and Zhou S: Attenuation of formalin-induced nociceptive behaviors following local peripheral injection of gabapeptin. Pain 76, 201-207, 1998). Male rats (Chbb: THOM) weighing 250-300 grams are used. 20 μl of a 2% formaldehyde solution is injected into the plantar region of the right hind paw. Immediately after, the number of flinches (twitches of the affected hind paw) and the length of time spent licking the affected paw are recorded over a period of one hour. After 5 minutes in each case the values are grouped together into epochs. From the epoch values, time-effect curves for flinches and licking are plotted. Typically, two phases of formalin effect are observed (flinches, licking). A first phase lasting 0-10 minutes and a second phase lasting 10-60 minutes. Between the two phases the number of flinches and duration of licking fall towards 0 (interphase). From the time-effect curves the areas under the curve for the first phase and for the second phase are determined. Usually, 5 animals are used for each control, placebo and dose of substance. The results of the doses of substance are compared with those of the controls and ED50 values are calculated. The ED50 is the dose at which the control values are inhibited by 50%.

[2] = tested on: Tetrodotoxin-sensitive currents; assay type: cell-based, rat; conditions: read-out: IC50 tetrodotoxin-sensitive currents; neurone cultures from the posterior root ganglions of adult rats
[3] = tested on: neuropathic pain (tactile allodynia, thermal hyperalgesia); test: test models for neuropathic pain in the rat; assay type: in vivo; conditions: neuropathic pain models in the rat (Bennett and Xie; Seltzer et al.)
Source text: (1) Bennett G J and Xie Y-K. A peripheral mononeuropathy in rat that produces disorders of pain sensation like those seen in man. Pain 33, 87-107, […]. (2) Seltzer, Z., Dubner R. and Shir, Y. A novel behavioral model of neuropathic pain disorder. Pain 43, 205-218, 1990.

Row | Structure (SMILES) | ED50 [1] [mg/kg] | IC50 [2] [µM] | tactile allodynia [3] | thermal hyperalgesia [3]
1 | Nc1c(Br)cc(Br)cc1CN[C@H]1CC[C@H](O)CC1 [ambroxol hydrochloride] | 70 | – | – | –
2 | Nc1c(Br)cc(Br)cc1CN[C@H]1CC[C@H](O)CC1 [ambroxol, trans-4-(2-amino-3,5-dibrombenzylamino)-cyclohexanol] | – | > 100 | reduced the tactile allodynia | reduced
